Experimental data published in patent publication US20120270251A1, “INHIBITION OF THE ACTIVITY OF KINASE AND SYNTHETASE ENZYMES” (CSIR, priority 2009, published 2012).

Target: Mycobacterium tuberculosis shikimate kinase (Mycobacterium tuberculosis, UniProt P9WPY3)
Assay: Shikimate kinase steady-state kinetics, ATP vs C8D-ATP
Format: biochemical
Text: Hexokinase from Saccharomyces cerevisiae Type F-300 (Sigma, H4502) and Acetate kinase from E. coli (Sigma, A7437) were purchased. The human adenylate kinase (AK1) gene in vector pLIG-SC1 was obtained from the Structural Genomics Consortium (code AK1A). The His-tagged AK1 was produced in Escherichia coli Origami (DE3) and purified using the Bio-Rad Profinia Purification System. […] The Mycobacterium tuberculosis shikimate kinase gene in pET15b (Novagen) was obtained from the group of Chris Abell, Cambridge University, UK. The his-tagged MtSK was produced in E. coli BL21 (DE3) and purified using the Bio-Rad Profinia Purification System. The pure protein was dialysed against 50 mM Tris (pH 7.5) and 1,000 mM NaCl. Adenylylated (GS12) and deadenylylated (GS0) glutamine synthetase were prepared as outlined below.
The final volumes were 100 μl, and the reactions were incubated at 37° C. for 20 minutes, before being terminated by the addition of 5 μl 200 mM EDTA.
The results are reflected in FIGS. 19 to 25. […] The best-fit to the data was obtained for the specified kinetic model using the non-linear regression algorithms as outlined using the GraphPad Prism® 5 software. […] These response curves were then used to define the KIE by the conventional estimation of KIE from KIE=vH/vD. The KIED was also determined using the following function: […]

[1] = tested model: Allosteric sigmoidal

Chain of Mycobacterium tuberculosis shikimate kinase (P9WPY3 whole entry): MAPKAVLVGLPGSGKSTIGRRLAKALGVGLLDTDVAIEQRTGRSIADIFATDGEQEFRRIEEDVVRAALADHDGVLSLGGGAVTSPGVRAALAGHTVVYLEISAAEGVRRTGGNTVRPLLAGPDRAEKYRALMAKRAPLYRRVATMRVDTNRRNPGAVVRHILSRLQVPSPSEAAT

Row | Compound | KIEvmax (KIE at maximum enzyme activity) | fit to kinetic model [1] | fit to kinetic model (tested model: Michaelis-Menton)
1 | Nc1ncnc2c1ncn2[C@@H]1O[C@H](COP(=O)(O)OP(=O)(O)OP(=O)(O)O)[C@@H](O)[C@H]1O [C8D-ATP] | 1 | Allosteric sigmoidal | Fit ambiguous
2 | Nc1ncnc2c1ncn2[C@@H]1O[C@H](COP(=O)(O)OP(=O)(O)OP(=O)(O)O)[C@@H](O)[C@H]1O [ATP, adenosine triphosphate, reference compound] | – | Allosteric sigmoidal | Fit ambiguous
